From article PMC12150326 (The Journal of Organic Chemistry, 2025)
Like-named read-outs stand apart in the source and are kept apart here.

Columns and labels:
Assay type in all cases: cell-based, human
[1] = tested on: NCI-H522
Procedure, shortened: (§1)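 Concentrations tested in the NCI-60 panel were 0.01, 0.1, 1, 10 and 100 μM. The endpoint taken forward was TGI, whose pattern across lines was run through COMPARE alongside earlier tubulin inhibitors.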

[2] = tested on: OVCAR-5
Procedure, shortened: as §1

[3] = tested on: SN12C
Procedure, shortened: as §1

[4] = tested on: UACC-257
Procedure, shortened: as §1

[5] = tested on: UACC-62
Procedure, shortened: (§2)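 Read-out: total growth inhibition (TGI) from a five-dose NCI-60 run spanning 0.01–100 μM. These TGI profiles were then compared by COMPARE analysis with those of reference tubulin-binding agents.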

[6] = tested on: RPMI-8226
Procedure, shortened: as §1

[7] = tested on: U251
Procedure, shortened: as §1

[8] = tested on: HCC-2998
Procedure, shortened: as §1

[9] = tested on: MCF7
Procedure, shortened: as §1

[10] = tested on: NCI-H226
Procedure, shortened: as §1

[11] = tested on: SR
Procedure, shortened: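 NCI-60 panel, 5-dose format (100 μM → 0.01 μM, tenfold steps). TGI values used for COMPARE vs. known tubulin inhibitors.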

[12] = tested on: TK-10
Procedure, shortened: as §2

[13] = tested on: M14
Procedure, shortened: as §1

[14] = tested on: RXF 393
Procedure, shortened: as §1

[15] = tested on: MDA-MB-468
Procedure, shortened: as §1

[16] = tested on: LOX IMVI
Procedure, shortened: as §2

[17] = tested on: MALME-3M
Procedure, shortened: as §1

[18] = tested on: HOP-92
Procedure, shortened: as §1

[19] = tested on: PC-3
Procedure, shortened: as §2

[20] = tested on: CCRF-CEM
Procedure, shortened: as §2

[21] = tested on: UO-31
Procedure, shortened: as §1

[22] = tested on: HT29
Procedure, shortened: as §1

[23] = tested on: 786-0
Procedure, shortened: as §1

[24] = tested on: ACHN
Procedure, shortened: as §2

[25] = tested on: SK-MEL-5
Procedure, shortened: as §1

[26] = tested on: SNB-75
Procedure, shortened: as §1

[27] = tested on: IGROV1
Procedure, shortened: as §1

[28] = tested on: BT-549
Procedure, shortened: as §1

COc1cc(C)c(-c2ccc(OC)c(=O)cc2C)c(OC)c1OC (single isomer, unassigned) [(aS)-6]
> -4.00 Molar: Log10GI50 [1] | Log10LC50 [1] | Log10TGI [1] | Log10GI50 [2] | Log10LC50 [2] | Log10TGI [2] | Log10GI50 [3] | Log10LC50 [3] | Log10TGI [3] | Log10GI50 [4] | Log10LC50 [4] | Log10TGI [4] | Log10GI50 [5] | Log10LC50 [5] | Log10TGI [5] | Log10GI50 [6] | Log10LC50 [6] | Log10TGI [6] | Log10GI50 [7] | Log10LC50 [7] | Log10TGI [7] | Log10GI50 [8] | Log10LC50 [8] | Log10TGI [8] | Log10GI50 [9] | Log10LC50 [9] | Log10TGI [9] | Log10GI50 [10] | Log10LC50 [10] | Log10TGI [10] | Log10GI50 [11] | Log10LC50 [11] | Log10TGI [11] | Log10GI50 [12] | Log10LC50 [12] | Log10TGI [12] | Log10GI50 [13] | Log10LC50 [13] | Log10TGI [13] | Log10GI50 [14] | Log10LC50 [14] | Log10TGI [14] | Log10LC50 [15] | Log10TGI [15] | Log10GI50 [16] | Log10LC50 [16] | Log10TGI [16] | Log10GI50 [17] | Log10LC50 [17] | Log10TGI [17] | Log10LC50 [18] | Log10TGI [18] | Log10GI50 [19] | Log10LC50 [19] | Log10TGI [19] | Log10GI50 [20] | Log10LC50 [20] | Log10TGI [20] | Log10GI50 [21] | Log10LC50 [21] | Log10TGI [21] | Log10GI50 [22] | Log10LC50 [22] | Log10TGI [22] | Log10GI50 [23] | Log10LC50 [23] | Log10TGI [23] | Log10GI50 [24] | Log10LC50 [24] | Log10TGI [24] | Log10GI50 [25] | Log10LC50 [25] | Log10TGI [25] | Log10GI50 [26] | Log10LC50 [26] | Log10TGI [26] | Log10GI50 [27] | Log10LC50 [27] | Log10TGI [27] | Log10GI50 [28] | Log10LC50 [28] | Log10TGI [28]
-4.20 Molar: Log10GI50 [15]
-4.65 Molar: Log10GI50 [18]

COc1cc(C)c(-c2ccc(=O)c(OC)cc2C)c(OC)c1OC (single isomer, unassigned) [(aS)-iso-6]
-4.60 Molar: Log10GI50 [9] | Log10GI50 [22]
-4.78 Molar: Log10GI50 [5] | Log10GI50 ([5]; […])
5.75 µM: GI50 ([11]; Homo sapiens)
47.9 µM: GI50 ([27]; Homo sapiens, IGROV-1)
-4.53 Molar: Log10GI50 [20] | Log10GI50 ([20]; […])
46.8 µM: GI50 ([23]; Homo sapiens)
-4.85 Molar: Log10GI50 [15] | Log10GI50 ([15]; […])
-4.32 Molar: Log10GI50 [27] | Log10GI50 ([27]; […])
-4.68 Molar: Log10GI50 [14] | Log10GI50 ([14]; […])
33.1 µM: GI50 ([8]; Homo sapiens)
30.9 µM: GI50 ([26]; Homo sapiens)
-5.18 Molar: Log10GI50 [16] | Log10GI50 ([16]; […])
-4.5 Molar: Log10GI50 ([19]; […])
> -4 Molar: Log10GI50 ([12]; […])
-4.6 Molar: Log10GI50 ([9]; […]) | Log10GI50 ([22]; […])
-4.36 Molar: Log10TGI [26]
-4.50 Molar: Log10GI50 [19]
-4.82 Molar: Log10GI50 [28] | Log10GI50 ([28]; […])
-4.15 Molar: Log10TGI [1] | Log10GI50 [4] | Log10GI50 ([4]; […])
6.61 µM: GI50 ([16]; Homo sapiens)
87.1 µM: GI50 ([10]; Homo sapiens)
16.6 µM: GI50 ([5]; Homo sapiens)
29.5 µM: GI50 ([20]; Homo sapiens)
-4.48 Molar: Log10GI50 [8] | Log10GI50 ([8]; […])
15.1 µM: GI50 ([28]; Homo sapiens)
-4.34 Molar: Log10GI50 [21] | Log10GI50 ([21]; […]) | Log10GI50 [25] | Log10GI50 ([25]; […])
20.4 µM: GI50 ([1]; Homo sapiens)
18.8 µM: GI50 ([7]; Homo sapiens, U-251)
-4.76 Molar: Log10GI50 [13] | Log10GI50 ([13]; […])
-4.42 Molar: Log10GI50 [3] | Log10GI50 ([3]; […]) | Log10GI50 [17]
38 µM: GI50 ([3]; Homo sapiens)
-4.38 Molar: Log10GI50 [2] | Log10GI50 ([2]; […]) | Log10GI50 [6] | Log10GI50 ([6]; […])
17.4 µM: GI50 ([13]; Homo sapiens)
70.8 µM: GI50 ([4]; Homo sapiens)
-4.725 Molar: Log10GI50 ([7]; […])
-4.12 Molar: Log10TGI [14]
45.7 µM: GI50 ([21]; Homo sapiens) | GI50 ([25]; Homo sapiens)
10.2 µM: GI50 ([18]; Homo sapiens)
31.6 µM: GI50 ([19]; Homo sapiens)
> -4.00 Molar: Log10LC50 [1] | Log10LC50 [2] | Log10TGI [2] | Log10LC50 [3] | Log10TGI [3] | Log10LC50 [4] | Log10TGI [4] | Log10LC50 [5] | Log10TGI [5] | Log10LC50 [6] | Log10TGI [6] | Log10LC50 [7] | Log10TGI [7] | Log10LC50 [8] | Log10TGI [8] | Log10LC50 [9] | Log10TGI [9] | Log10LC50 [10] | Log10TGI [10] | Log10LC50 [11] | Log10TGI [11] | Log10GI50 [12] | Log10LC50 [12] | Log10TGI [12] | Log10LC50 [13] | Log10TGI [13] | Log10LC50 [14] | Log10LC50 [15] | Log10TGI [15] | Log10LC50 [16] | Log10TGI [16] | Log10LC50 [17] | Log10TGI [17] | Log10LC50 [18] | Log10TGI [18] | Log10LC50 [19] | Log10TGI [19] | Log10LC50 [20] | Log10TGI [20] | Log10LC50 [21] | Log10TGI [21] | Log10LC50 [22] | Log10LC50 [23] | Log10TGI [23] | Log10LC50 [24] | Log10TGI [24] | Log10LC50 [25] | Log10TGI [25] | Log10LC50 [26] | Log10LC50 [27] | Log10TGI [27] | Log10LC50 [28] | Log10TGI [28]
-5.27 Molar: Log10GI50 [26]
-4.06 Molar: Log10GI50 [10] | Log10GI50 ([10]; […])
-4.69 Molar: Log10GI50 [1] | Log10GI50 ([1]; […])
-4.99 Molar: Log10GI50 [18] | Log10GI50 ([18]; […])
41.7 µM: GI50 ([2]; Homo sapiens) | GI50 ([6]; Homo sapiens)
20.9 µM: GI50 ([14]; Homo sapiens)
-4.33 Molar: Log10GI50 [23] | Log10GI50 ([23]; […])
-5.24 Molar: Log10GI50 [11] | Log10GI50 ([11]; […])
> 100 µM: GI50 ([12]; Homo sapiens)
-4.03 Molar: Log10TGI [22]
85.1 µM: GI50 ([24]; Homo sapiens)
-4.51 Molar: Log10GI50 [7] | Log10GI50 ([26]; […])
14.1 µM: GI50 ([15]; Homo sapiens)
-4.07 Molar: Log10GI50 [24] | Log10GI50 ([24]; […])
25.1 µM: GI50 ([9]; Homo sapiens) | GI50 ([22]; Homo sapiens, HT-29)
